Laboratory results from PubChem BioAssay (NCI).
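Cultured in 96-well plates, cells were exposed to test compound for 48 hours across five concentrations. TGI is the concentration that stops growth completely.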

How the values were obtained:
Experiment in all cases: NCI anticancer screen, dose series, 48 h
[1] = system: SK-MEL-2 melanoma
[2] = system: HS 578T breast
[3] = system: SK-MEL-28 melanoma
[4] = system: PC-3 prostate
[5] = system: UO-31 renal
[6] = system: OVCAR-8 ovarian
[7] = system: SF-539 CNS
[8] = system: SK-OV-3 ovarian
[9] = system: MDA-N
[10] = system: MCF7 breast
[11] = system: SNB-19 CNS
[12] = system: NCI/ADR-RES ovarian
[13] = system: SR leukemia
[14] = system: CCRF-CEM leukemia
[15] = system: M14 melanoma
[16] = system: TK-10 renal
[17] = system: NCI-H460 lung
[18] = system: IGROV1 ovarian
[19] = system: MALME-3M melanoma
[20] = system: HT29 colon
[21] = system: HCT-15 colon
[22] = system: ACHN renal
[23] = system: U251 CNS
[24] = system: SW-620 colon
[25] = system: RPMI-8226 leukemia
[26] = system: SF-295 CNS
[27] = system: SF-268 CNS
[28] = system: SN12C renal
[29] = system: UACC-62 melanoma
[30] = system: HCC-2998 colon
[31] = system: MOLT-4 leukemia
[32] = system: SK-MEL-5 melanoma
[33] = system: KM12 colon
[34] = system: HOP-92 NSCLC
[35] = system: DU-145 prostate
[36] = system: T-47D breast
[37] = system: MDA-MB-435
[38] = system: NCI-H23 lung
[39] = system: NCI-H226 lung
[40] = system: BT-549 breast
[41] = system: NCI-H522 lung
[42] = system: OVCAR-3 ovarian
[43] = system: UACC-257 melanoma
[44] = system: HOP-62 NSCLC
[45] = system: SNB-75 CNS
[46] = system: COLO 205 colon
[47] = system: MDA-MB-231 breast
[48] = system: A549 NSCLC
[49] = system: HL-60(TB) leukemia
[50] = system: OVCAR-5 ovarian
[51] = system: LOX IMVI melanoma
[52] = system: HCT-116 colon
[53] = system: 786-0 renal
[54] = system: CAKI-1 renal
[55] = system: EKVX NSCLC
[56] = system: A498 renal
[57] = system: RXF 393 renal
[58] = system: K-562 leukemia
[59] = system: OVCAR-4 ovarian

CC1OC2OC3C(OCC(O)C3O)OC(=O)[C@]34CCC(C)(C)CC3C3=CCC5[C@@]6(C)C[C@H](O)[C@H](OC7OC(CO)C(O)C(O)C7OC7OCC(OC(=O)CC(C)(O)CC(=O)OC1C(O)C2O)C(O)C7O)[C@@](C)(CO)C6CC[C@@]5(C)[C@]3(C)CC4 (stereo not given in full)
TGI [1]: 18.8 µM | TGI [2]: 21.2 µM | TGI [3]: 4.97 µM | TGI [4]: 6.72 µM | TGI [5]: 18.5 µM | TGI [6]: 15.8 µM | TGI [7]: 26 µM | TGI [8]: 10.4 µM | TGI [9]: 13.8 µM | TGI [10]: 26.4 µM | TGI [11]: 21.3 µM | TGI [12]: 28.3 µM | TGI [13]: 20.3 µM | TGI [14]: 24 µM | TGI [15]: 8.87 µM | TGI [16]: 19.2 µM | TGI [17]: 23.9 µM | TGI [18]: 16.9 µM | TGI [19]: 12.3 µM | TGI [20]: 10.4 µM | TGI [21]: 19.2 µM | TGI [22]: 18.3 µM | TGI [23]: 12.6 µM | TGI [24]: 19 µM | TGI [25]: 17.7 µM | TGI [26]: 12.4 µM | TGI [27]: 9.2 µM | TGI [28]: 21.1 µM | TGI [29]: 14.4 µM | TGI [30]: 5.12 µM | TGI [31]: 23.1 µM | TGI [32]: 16.3 µM | TGI [33]: 10.5 µM | TGI [34]: 6.03 µM | TGI [35]: 14.7 µM | TGI [36]: 17.6 µM | TGI [37]: 19.1 µM | TGI [38]: 10.1 µM | TGI [39]: 35.9 µM | TGI [40]: 24.8 µM | TGI [41]: 12 µM | TGI [42]: 20.7 µM | TGI [43]: 6.69 µM | TGI [44]: 6.8 µM | TGI [45]: 18.4 µM | TGI [46]: 4.39 µM | TGI [47]: 20.6 µM | TGI [48]: 10.7 µM | TGI [49]: 4.11 µM | TGI [50]: 7 µM | TGI [51]: 21.7 µM | TGI [52]: 17.4 µM | TGI [53]: 25.6 µM

CC(=O)OCC1OC(n2c(Br)nc3c2c(=O)n(C)c(=O)n3C)C(OC(C)=O)C1OC(C)=O (stereo not given)
TGI [2]: > 100 µM | TGI [3]: > 100 µM | TGI [4]: > 100 µM | TGI [5]: > 100 µM | TGI [6]: > 100 µM | TGI [7]: > 100 µM | TGI [8]: > 100 µM | TGI [9]: > 100 µM | TGI [10]: > 100 µM | TGI [11]: > 100 µM | TGI [12]: > 100 µM | TGI [13]: > 100 µM | TGI [54]: > 100 µM | TGI [15]: > 100 µM | TGI [16]: > 100 µM | TGI [17]: > 100 µM | TGI [18]: > 100 µM | TGI [55]: > 100 µM | TGI [19]: > 100 µM | TGI [20]: > 100 µM | TGI [21]: > 100 µM | TGI [22]: > 100 µM | TGI [23]: > 100 µM | TGI [24]: > 100 µM | TGI [25]: 95.6 µM | TGI [26]: > 100 µM | TGI [27]: > 100 µM | TGI [28]: > 100 µM | TGI [29]: > 100 µM | TGI [30]: > 100 µM | TGI [31]: > 100 µM | TGI [32]: > 100 µM | TGI [33]: > 100 µM | TGI [56]: > 100 µM | TGI [34]: > 100 µM | TGI [57]: > 100 µM | TGI [35]: > 100 µM | TGI [58]: > 100 µM | TGI [36]: > 100 µM | TGI [37]: > 100 µM | TGI [59]: 83.6 µM | TGI [38]: > 100 µM | TGI [39]: > 100 µM | TGI [40]: > 100 µM | TGI [41]: > 100 µM | TGI [42]: > 100 µM | TGI [43]: > 100 µM | TGI [44]: > 100 µM | TGI [45]: > 100 µM | TGI [46]: > 100 µM | TGI [47]: > 100 µM | TGI [48]: > 100 µM | TGI [49]: 57.9 µM | TGI [50]: > 100 µM | TGI [51]: > 100 µM | TGI [52]: > 100 µM | TGI [53]: > 100 µM

O=C1CSC(c2cccc(Cl)c2)N1c1ccc(-c2ccc(-n3c(-c4ccccc4)nc4ccccc4c3=O)cc2)cc1 (stereo not given)
TGI [1]: > 100 µM | TGI [2]: > 100 µM | TGI [3]: > 100 µM | TGI [4]: > 100 µM | TGI [5]: 84.1 µM | TGI [6]: > 100 µM | TGI [7]: > 100 µM | TGI [8]: > 100 µM | TGI [9]: > 100 µM | TGI [10]: > 100 µM | TGI [11]: > 100 µM | TGI [12]: > 100 µM | TGI [13]: > 100 µM | TGI [14]: > 100 µM | TGI [54]: > 100 µM | TGI [15]: > 100 µM | TGI [16]: > 100 µM | TGI [17]: > 100 µM | TGI [18]: > 100 µM | TGI [55]: > 100 µM | TGI [19]: > 100 µM | TGI [20]: > 100 µM | TGI [21]: > 100 µM | TGI [22]: > 100 µM | TGI [23]: > 100 µM | TGI [24]: > 100 µM | TGI [25]: > 100 µM | TGI [26]: > 100 µM | TGI [27]: > 100 µM | TGI [28]: > 100 µM | TGI [29]: > 100 µM | TGI [30]: > 100 µM | TGI [31]: > 100 µM | TGI [32]: 84.4 µM | TGI [33]: > 100 µM | TGI [56]: > 100 µM | TGI [34]: 56.5 µM | TGI [35]: > 100 µM | TGI [58]: > 100 µM | TGI [36]: 97.9 µM | TGI [37]: > 100 µM | TGI [59]: > 100 µM | TGI [38]: > 100 µM | TGI [39]: > 100 µM | TGI [40]: 80.3 µM | TGI [41]: > 100 µM | TGI [42]: > 100 µM | TGI [43]: > 100 µM | TGI [44]: > 100 µM | TGI [46]: > 100 µM | TGI [47]: > 100 µM | TGI [48]: > 100 µM | TGI [49]: > 100 µM | TGI [50]: > 100 µM | TGI [51]: > 100 µM | TGI [52]: > 100 µM | TGI [53]: > 100 µM

COC(=O)C1OC(O[C@H]2CC[C@]3(C)[C@H]4CC=C5[C@@H]6CC(C)(C)CC[C@]6(C(=O)OC6OCC(O)C(O)C6OC6OC(C)C(OC7OCC(O)C(O)C7O)C(OC7OCC(O)(CO)C7O)C6O)[C@H](O)C[C@@]5(C)[C@]4(C)CC[C@H]3C2(C)C)C(O)C(O)C1O (stereo not given in full)
TGI [1]: 5.82 µM | TGI [2]: 28.2 µM | TGI [3]: 4.69 µM | TGI [4]: 14.5 µM | TGI [5]: 4.62 µM | TGI [6]: 24.4 µM | TGI [7]: > 100 µM | TGI [8]: 24.9 µM | TGI [9]: 4.14 µM | TGI [10]: 3.43 µM | TGI [11]: 19 µM | TGI [12]: 18.2 µM | TGI [13]: 6.37 µM | TGI [14]: > 100 µM | TGI [54]: 17.5 µM | TGI [15]: 7.41 µM | TGI [16]: 29.4 µM | TGI [17]: 34.3 µM | TGI [18]: 27.1 µM | TGI [55]: 8.21 µM | TGI [19]: 15.7 µM | TGI [20]: 7.16 µM | TGI [21]: 22.2 µM | TGI [22]: 10.1 µM | TGI [23]: 19.3 µM | TGI [24]: 19.2 µM | TGI [25]: > 31.1 µM | TGI [26]: 15.9 µM | TGI [27]: 24 µM | TGI [28]: 3.6 µM | TGI [29]: 6.08 µM | TGI [30]: 3.79 µM | TGI [31]: > 100 µM | TGI [32]: 16.6 µM | TGI [33]: 9.49 µM | TGI [56]: 3.3 µM | TGI [34]: 3.94 µM | TGI [57]: 24.6 µM | TGI [35]: 20.9 µM | TGI [58]: > 100 µM | TGI [36]: 15.3 µM | TGI [37]: 3.7 µM | TGI [59]: 17.4 µM | TGI [38]: 3.56 µM | TGI [39]: 15.5 µM | TGI [40]: 6.55 µM | TGI [41]: 5.78 µM | TGI [42]: 23.2 µM | TGI [43]: 11.5 µM | TGI [44]: 10.1 µM | TGI [45]: 19.5 µM | TGI [46]: 2.92 µM | TGI [47]: 7.56 µM | TGI [48]: 12.6 µM | TGI [50]: 13.4 µM | TGI [51]: 20.1 µM | TGI [52]: 13.5 µM | TGI [53]: 20 µM
